According to patent EP1134585B1, “Biosensor and method for the monitoring of herbicides” (CONSIGLIO NAZIONALE DELLE RICERCHE, priority 2000, dated 2001):

What was measured:
Thr226->Ala = settings: cited from earlier work
Gly228->Arg = settings: cited from earlier work
I1e229->Ala = settings: cited from earlier work
I1e229→Met = settings: R. capsulatus; cited from earlier work
[1] = test system: thylakoids from Amaranthus retroflexus, Mutant; assay type: biochemical; settings: herbicide concentration 10^-6 M
D1 protein Asn266->Asp = settings: code loxlla; cited from earlier work
D1 protein A/a251->lIe = D1 protein A/a251->lIe (Chlamydomonas reinhardtii, UniProt P07753, A251I); settings: cited from earlier work
[2] = molecular target: D1 protein Phe211→Ala Met214→Thr (Chlamydomonas reinhardtii, UniProt P07753, F211A/M214T); settings: cited from earlier work
Tyr222->Phe = settings: code T4; cited from earlier work
D1 protein Phe255->Tyr = D1 protein Phe255->Tyr (Chlamydomonas reinhardtii, UniProt P07753, F255Y); settings: code Ar207+; cited from earlier work
[3] = molecular target: T1, thylakoids from Spinacia oleracea (Spinacia oleracea, UniProt P69560); experiment: Biosensor fluorescence response (Tables B and C); assay type: biochemical; settings: for inhibition at 0.01 µM: control printed as 100
T1 construct: biomediator based on thylakoids from Spinacia oleracea; from tissue; host or cells: thylakoids isolated from mature spinach plants
Text: (§1) According to a specially advantageous embodiment, Bioherbi is an equipment weighing in all about […], occupies a space of about 30x30x20 cm and is constituted as reported below. • a) flow cell wherein the biomediator is immobilized. […] The black plastic material allows to fit the biomediator in the dark. The biomediator in entrapped in the inner section. The surface tightness of the reading hole is obtained using a glass cover plate for microscopy. The inner cell, where the mediator is entrapped, has un volume from 50 to 300 µl. • b) a peristaltic pump is the hydraulic part to withdraw the sample containing the herbicide to be analyzed, which moves said sample through the flow cell and brings it in close contact with the biomediator. According to a specially advantageous embodiment a single block is used as holder for the herbicide and peristaltic pump. The flow can be varied from 0,2 to 2 ml/min depending on the sample. Higher flow increases the sensitivity to the herbicide because the latter interacts with a higher number of bonding sites on PS II. By laboratory tests it was found out that, when the solution of the herbicide flows, the efficiency of the fluorescence measure could be impaired by light scattering effects. Accordingly it is preferred to carry out the measure in stopped-flow conditions using a flow switch. The biomediator immobilized within the flow cell, following each measure, is washed and regenerated by a suitable buffer solution. A valve allows to forward alternatively the flow of the buffer or the solution containing the herbicide to be analyzed. • c) optical fiber fluorescence sensor closely connected to the flow cell. The fluorescence emitted from green plants depends on the photosynthetic activity. Recent studies on fluorescence measuring techniques made this feature a very important tool in the basic and applied research about the plant physiology (D Lazar, 1999, Biochim Biophys Acta 1-28). Bioherbi analyzer measures the fluorescence emitted from photosynthetic complexes and modifications determined by the presence of herbicide. The sensor is tightly connected to the flow cell to avoid any infiltration of external light and provides the excitation light detecting the fluorescence signal. The excitation light is emitted from an emitting diode at a very narrow wavelength of about 650 nm, which is quickly absorbed by the Photosystem II of the photosynthetic organisms and has the advantage in that it provides light with reduced heating and emits the signal very quickly. A "feedback" optical circuit controls and adjusts the variations of the intensity of the emitted light also resulting from variations of ambient temperature. The analyzer consists of an high capacity photodiode associated to an amplifier. The optical system responds perfectly to the fluorescence emission wavelength of 700 nm and stops the reflection light of lower wavelength resulting from the emission light. The sensor is connected to the control computer by an about 30 cm long fiber. According to a variation of the biosensor we used a more complex fluorescence system, adjustable as the excitation light in order to allow the use, as biomediator, of photosynthetic organisms requiring specific wavelengths. • e) a control and data processing computer. […] The concentration of the herbicide is proportional to the area over the fluorescence curve (Table 1A-B); the inhibition of this area is closely related to the washing times whereby it is possible to determinate the concentration of the herbicide also using the washing time required to obtain an almost complete inhibition of the area (see Table 1C). The fluorescence signal received by the sensor is processed within the control chamber by transduction systems of the signal and analog-to-digital converters. The system is computerized with a very sophisticated microprocessor able to process the data of the fluorescence signal. […]

Vicia faba thylakoids = Vicia faba thylakoids (Vicia faba, UniProt P13910); experiment: Biosensor fluorescence response, immobilized thylakoids (Table A); assay type: biochemical; settings: contact time 20 min
Text: as §1

PhC2,6―Pro = settings: cited from earlier work
monoclonal antibodies = settings: ELISA (Schneider et al. 1994); cited from earlier work
Gly228->Val = settings: cited from earlier work
I1e228->Leu = settings: cited from earlier work
[4] = test system: PS II isolated from thermophilic cyanobacteria; settings: immobilized PS II, Clark electrode (Koblizek et al.); cited from earlier work
Thr226->Met = settings: cited from earlier work
Phe216→Val = settings: cited from earlier work
Phe216->Thr = settings: cited from earlier work
[5] = test system: thylakoids from Amaranthus retroflexus, Wild-type; experiment: Biosensor fluorescence response (Table D), wild-type biomediator; assay type: biochemical; settings: herbicide concentration 10^-6 M
I1e229->Cys = settings: cited from earlier work
PS II = PS II treated with CdCl2, refrigeration at 5°C, flow 0,2-2,0 ml/m
Text: To further increase the stability of the biomediator the usefulness of a system for the refrigeration of the solution containing herbicide forwarded into the measuring cell experimentally was observed.

Phe216->Leu = settings: cited from earlier work
[6] = Table B, first column Diuron 10^-8 M, contact time 15 min
[7] = Table B, second column Diuron 10^-8 M, contact time 15 min
[8] = Diuron 10^-9 M, after regeneration

## CN(C)C(=O)Nc1ccc(Cl)c(Cl)c1 [Diuron]
Thr226->Ala
  Resistance R/S: Diuron 1
Gly228->Arg
  Resistance R/S: Diuron 1
I1e229->Ala
  Resistance R/S: Diuron 1
I1e229→Met
  Resistance R/S: Diuron 1
[1]
  Area % inhibition Mutant: 96%
D1 protein Asn266->Asp
  Supersensitivity R/S: Diuron 0,7
D1 protein A/a251->lIe
  Supersensitivity R/S: Diuron 0,6
[2]
  Supersensitivity R/S: Diuron 0,8
Tyr222->Phe
  Supersensitivity R/S: Diuron <0,0001
D1 protein Phe255->Tyr
  Supersensitivity R/S: Diuron 0,6-0,8
[3]; [6]
  Area: 12700
  Fv/Fm: 0,768
  inhibition at 0.01 µM: 88%
[3]; [7]
  Area: 10400
  Fv/Fm: 0,756
  inhibition at 0.01 µM: 71%
[3]; Table C, Diuron 10^-7M, 10 min
  Area: 7830
  Fv/Fm: 0,746
  inhibition at 0.1 µM: 32%
[3]; Table C, Diuron 10^-7M, 40 min
  Area: 6120
  Fv/Fm: 0,711
  inhibition at 0.1 µM: 47%
[3]; Table C, Diuron 10^-7M, 50 min
  Area: 5090
  Fv/Fm: 0,700
  inhibition at 0.1 µM: 56%
[3]; Table C, Diuron 10^-7M, 60 min
  Area: 4160
  Fv/Fm: 0,684
  inhibition at 0.1 µM: 64%
Vicia faba thylakoids; Diuron 10^-6 M, area over the fluorescence curve
  Area: 10300
Vicia faba thylakoids; Diuron 10^-6 M, inhibition of area vs control
  inhibition at 1 µM: 93%
Vicia faba thylakoids; Diuron 10^-6 M, mean of at least three measures
  Fv/Fm: 0,540
Vicia faba thylakoids; [8]
  Area: 4030
  Fv/Fm: 0,475
  inhibition at 0.001 µM: 60%
PhC2,6―Pro
  Resistance R/S: patron 1
Monoclonal antibodies
  sensitivity: 200 pM
Gly228->Val
  Resistance R/S: Diuron 1
I1e228->Leu
  Resistance R/S: Diuron 1
[4]
  sensitivity: 10^-10 mol/l
Thr226->Met
  Resistance R/S: Diuron 1
Phe216→Val
  Resistance R/S: Diuron 1
Phe216->Thr
  Resistance R/S: Diuron 1
[5]
  Area % inhibition Wild-type: 99%
I1e229->Cys
  Resistance R/S: Diuron 1
PS II
  sensitivity (concentration): lower than nanomolar
Phe216->Leu
  Resistance R/S: Diuron 1
